Key:
[1] = Partition coefficient, log P of the compound; type: physicochemical; conditions: octanol/water
[2] = test system: Haemonchus contortus; test: Anthelmintic activity against Haemonchus contortus in infected sheep assessed as reduction in faecal egg at 0.05 mg/kg, po; type: functional, Feces; set-up: scale not given: the % may be the effect or the level left
[3] = test system: Haemonchus contortus; test: Anthelmintic activity against Haemonchus contortus in infected sheep assessed as reduction in faecal egg at 0.10 mg/kg, po; type: functional, Feces; set-up: scale not given: the % may be the effect or the level left; conditions: dose 0.1 mg/kg
[4] = test system: Haemonchus contortus; test: Anthelmintic activity against Haemonchus contortus in infected sheep assessed as reduction in faecal egg at 0.25 mg/kg, po; type: functional, Feces; set-up: scale not given: the % may be the effect or the level left

| SMILES | logP [1] | Activity [2] | Activity [3] | Activity [4] |
| --- | --- | --- | --- | --- |
| CCC(C)[C@H]1C(=O)O[C@H](C)C(=O)N(C)[C@@H](C)C(=O)O[C@H](C)C(=O)N(C)[C@@H](C(C)CC)C(=O)O[C@H](C)C(=O)N1C (stereo partly drawn) | 3.26 | >=95% |  |  |
| CC[C@@H](C)[C@H]1C(=O)O[C@H](Cc2cccc(N)c2)C(=O)N(C)[C@@H]([C@H](C)CC)C(=O)O[C@H](C)C(=O)N(C)[C@@H](C)C(=O)O[C@H](C)C(=O)N1C | 2.35 | >=95% |  |  |
| CC[C@@H](C)[C@H]1C(=O)O[C@H](Cc2ccc(N)cc2)C(=O)N(C)[C@@H]([C@H](C)CC)C(=O)O[C@H](C)C(=O)N(C)[C@@H](C)C(=O)O[C@H](C)C(=O)N1C | 2.08 |  | 50% |  |
| CC[C@@H](C)[C@H]1C(=O)O[C@H](Cc2ccccc2)C(=O)N(C)[C@@H]([C@H](C)CC)C(=O)O[C@H](C)C(=O)N(C)[C@@H](C)C(=O)O[C@H](C)C(=O)N1C | 4.23 |  |  | <=50% |
| CC[C@@H](C)[C@H]1C(=O)O[C@H](Cc2ccc([N+](=O)[O-])cc2)C(=O)N(C)[C@@H]([C@H](C)CC)C(=O)O[C@H](C)C(=O)N(C)[C@@H](C)C(=O)O[C@H](C)C(=O)N1C |  |  | 50% |  |

Now from value to compound, other results behind:

| logP [1] | SMILES | Activity [2] | Activity [3] | Activity [4] |
| --- | --- | --- | --- | --- |
| 3.18 | CC[C@@H](C)[C@H]1C(=O)O[C@H](Cc2ccccc2N)C(=O)N(C)[C@@H]([C@H](C)CC)C(=O)O[C@H](C)C(=O)N(C)[C@@H](C)C(=O)O[C@H](C)C(=O)N1C | >=95% |  |  |
| 3.58 | CC[C@@H](C)[C@H]1C(=O)O[C@H](Cc2ccc(N3CCOCC3)cc2)C(=O)N(C)[C@@H]([C@H](C)CC)C(=O)O[C@H](C)C(=O)N(C)[C@@H](C)C(=O)O[C@H](C)C(=O)N1C |  | >=95% |  |

Reference: ChEMBL document CHEMBL1145322, “Synthesis and anthelmintic activity of substituted (R)-phenyllactic acid containing cyclohexadepsipeptides” (Bioorg Med Chem Lett, 2006)
